ChEMBL document CHEMBL1201862, “PubChem BioAssay data set” (2004)
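Protocol summary: plate cells (96-well), add compound at 5 concentrations, incubate 48 h, interpolate endpoints linearly. GI50 = concentration required for 50% inhibition of growth.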 Calls of active or inactive are those of the source. Cut-off read from the data, not from the text of the source: active = GI50 up to about 1.1 µM and inactive = higher.

Legend:
Test in all cases: inhibition of tumour cell growth, NCI panel, 48 h
[1] = test system: 786-0
[2] = test system: MOLT-4
[3] = test system: RXF 393
[4] = test system: SF-539
[5] = test system: CCRF-CEM
[6] = test system: HOP-92
[7] = test system: UACC-257
[8] = test system: Malme-3M
[9] = test system: MCF7
[10] = test system: HCT-116
[11] = test system: PC-3
[12] = test system: SF-268
[13] = test system: SW-620
[14] = test system: HCT-15
[15] = test system: UO-31
[16] = test system: MDA-MB-231
[17] = test system: OVCAR-8
[18] = test system: HOP-62
[19] = test system: M14
[20] = test system: OVCAR-4

Compound	GI50 [1]	GI50 [2]	GI50 [3]	GI50 [4]	GI50 [5]	GI50 [6]	GI50 [7]	GI50 [8]	GI50 [9]	GI50 [10]	GI50 [11]	GI50 [12]	GI50 [13]	GI50 [14] [µM]	GI50 [15]	GI50 [16]	GI50 [17]	GI50 [18]	GI50 [19]	GI50 [20]
C[N+]1(CCCCN2c3ccccc3Sc3cc(N=[N+]=[N-])ccc32)CCN(C(=O)CCNC(=O)Cc2ccc(C(=O)c3ccccc3)cc2)CC1	27 µM (inactive)	23.1 µM (inactive)	31.5 µM (inactive)	32.9 µM (inactive)	23.3 µM (inactive)	18.9 µM (inactive)	31.3 µM (inactive)	18.7 µM (inactive)	19.7 µM (inactive)	25.9 µM (inactive)	20.5 µM (inactive)	23.4 µM (inactive)	29.2 µM (inactive)	22.8	19.3 µM (inactive)	25.4 µM (inactive)	34.7 µM (inactive)	22.6 µM (inactive)	23.4 µM (inactive)	21.2 µM (inactive)
Oc1ccc2ccccc2c1/N=N/c1cccc2ccccc12	66.1 µM (inactive)	> 100 µM (inactive)	65.3 µM (inactive)	24.3 µM (inactive)	> 100 µM (inactive)	> 100 µM (inactive)	> 100 µM (inactive)	91.6 µM (inactive)	> 100 µM (inactive)	> 100 µM (inactive)	> 100 µM (inactive)	55.5 µM (inactive)	> 100 µM (inactive)	> 100	> 100 µM (inactive)	49.9 µM (inactive)	44.1 µM (inactive)	48.5 µM (inactive)	> 100 µM (inactive)	> 100 µM (inactive)
CC(=O)OCCC1c2ccccc2-n2nc(-c3ccccc3)c(O)c21 (stereo not given)	18.6 µM (inactive)	9.66 µM (inactive)	12.3 µM (inactive)	21.6 µM (inactive)	11.6 µM (inactive)	11.9 µM (inactive)	16.8 µM (inactive)	> 10 µM (inactive)	7.11 µM (inactive)	16.5 µM (inactive)	17.3 µM (inactive)	34.7 µM (inactive)	15.8 µM (inactive)	16.8	16.7 µM (inactive)	19.3 µM (inactive)	15.7 µM (inactive)	15.2 µM (inactive)	15.3 µM (inactive)	14.3 µM (inactive)
CC(=O)OC1(C)CC(C)C(=O)C(C(O)CC2CC(=O)NC(=O)C2)C1 (stereo not given)	0.0204 µM (active)	0.00444 µM (active)	0.01 µM (active)	0.0145 µM (active)	0.00507 µM (active)	0.00172 µM (active)	0.0262 µM (active)	0.0186 µM (active)	0.0176 µM (active)	0.00743 µM (active)	0.0199 µM (active)	0.0329 µM (active)	0.015 µM (active)	0.0348	0.0219 µM (active)	0.0137 µM (active)	0.0122 µM (active)	0.0193 µM (active)	0.0161 µM (active)	0.0184 µM (active)
CN(C)CCCN1c2ccc(O)cc2Sc2ccc(Cl)cc21 [7-HYDROXYCHLORPROMAZINE]	11.1 µM (inactive)	3.18 µM (inactive)	16.9 µM (inactive)	14.6 µM (inactive)	0.859 µM (active)	4.25 µM (inactive)	1.71 µM (inactive)	10.3 µM (inactive)	13.2 µM (inactive)	6.3 µM (inactive)	5.33 µM (inactive)	6.34 µM (inactive)	17.5 µM (inactive)	14.2	9.53 µM (inactive)	10.9 µM (inactive)	16 µM (inactive)	15.1 µM (inactive)	5.97 µM (inactive)	12.5 µM (inactive)
